Assay results published in ChEMBL document CHEMBL3853353, “Identification and optimization of a new series of anti-tubercular quinazolinones” (Bioorg Med Chem Lett, 2016).
Values after ≈ are worked out from the molar mass of the structure shown.

How the values were obtained:
[1] = test system: Mycobacterium tuberculosis; test: Antimycobacterial activity against Mycobacterium tuberculosis H37Rv incubated for 5 days by Bactiter-Glo assay; format: functional; details: 120 h
[2] = Cytotoxicity against human HepG2 cells assessed as reduction in cell viability after 40 hrs by Celltiter-Glo assay
[3] = Lipophilicity, log P of compound; details: octanol/water
[4] = test system: Mycobacterium tuberculosis; test: Antimycobacterial activity against Mycobacterium tuberculosis H37Rv incubated for 5 days in presence of 25% human serum by Bactiter-Glo assay; format: functional; details: 120 h
[5] = test system: Mycobacterium tuberculosis; test: Antimycobacterial activity against GFP-tagged Mycobacterium tuberculosis H37Rv infected in mouse RAW264.7 cells incubated for 4 days by Mask blue/Hoechst/FITC staining based fluorescence microscopic analysis; format: functional; details: 96 h
[6] = Aqueous equilibrium solubility of compound in pH 1 solution at 20 degC; details: aqueous pH 1 solution
[7] = Aqueous equilibrium solubility of compound in pH 7.4 solution at 20 degC; details: aqueous pH 7.4 solution
[8] = test system: Mycobacterium tuberculosis; test: Ratio of MIC80 for Mycobacterium tuberculosis H37Rv in presence of 25% human serum to MIC80 for Mycobacterium tuberculosis H37Rv; format: functional
[9] = Permeability in human Caco2 cells; details: caco-2
Cytochrome P450 3A4 [10] = molecular target: T1, Cytochrome P450 3A4 (Homo sapiens, UniProt P08684); test: Inhibition of CYP3A4 in human liver microsomes assessed as 6-beta-hydroxytestosterone metabolite formation using testosterone as substrate incubated for 30 mins by HPLC-MS method
Cytochrome P450 3A4 [11] = molecular target: T1, Cytochrome P450 3A4; test: Inhibition of CYP3A4 in human liver microsomes assessed as 1'-hydroxymidazolam metabolite formation using midazolam as substrate incubated for 10 mins by HPLC-MS method

T1 sequence (P08684 whole entry): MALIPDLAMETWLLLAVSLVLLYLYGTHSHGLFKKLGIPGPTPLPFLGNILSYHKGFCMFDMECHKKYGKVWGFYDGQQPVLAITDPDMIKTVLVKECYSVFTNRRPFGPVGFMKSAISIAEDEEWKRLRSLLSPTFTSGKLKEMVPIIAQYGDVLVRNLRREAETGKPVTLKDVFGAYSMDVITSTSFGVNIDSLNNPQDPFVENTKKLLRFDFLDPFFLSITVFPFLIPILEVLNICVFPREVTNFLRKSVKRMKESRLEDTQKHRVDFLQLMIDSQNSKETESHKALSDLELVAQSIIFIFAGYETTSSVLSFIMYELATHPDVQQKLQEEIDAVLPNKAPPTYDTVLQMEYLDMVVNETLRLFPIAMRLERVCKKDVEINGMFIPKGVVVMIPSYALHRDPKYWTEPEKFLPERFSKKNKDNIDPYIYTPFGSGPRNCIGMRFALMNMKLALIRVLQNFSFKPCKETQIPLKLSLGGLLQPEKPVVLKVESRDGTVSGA

SMILES | MIC80 [1] [µM] | IC50 at 40 h ([2]; HepG2 cells) [µM] | logP [3] | MIC80 [4] [µM] | MIC80 [5] [µM] | solubility thermodynamic [6] [µg/mL] | solubility thermodynamic [7] [µg/mL] | Ratio [8] | permeability [9] | IC50 (Cytochrome P450 3A4 [10]) [µM] | IC50 (Cytochrome P450 3A4 [11]) [µM] | IC50 at 40 h ([2]; hepg2) [µM]
Cn1c(NCCc2ccc(-c3ncc(F)cn3)cc2)nc2cc(Cl)ccc2c1=O | 0.003 (≈ 0.00123 µg/mL) | > 30 | 4.46 | 0.39 | 0.013 (≈ 0.00533 µg/mL) | 11 (≈ 26.8 µM) | < 1 | 30 | Permeable | 9.9 | > 30 | –
COc1ccc(NCc2nc3cc(Cl)ccc3c(=O)n2C)cc1 | 19.9 (≈ 6.56 µg/mL) | 15.7 | – | – | – | – | – | >10 | – | – | – | –
COc1ccc(CCNc2nc3cc(N)ccc3c(=O)n2C)cc1 | 0.04 (≈ 0.013 µg/mL) | – | 1.94 | 0.198 | – | – | – | 5 | – | – | – | –
COc1ccc(CCNc2nc3ccc(Cl)cc3c(=O)n2C)cc1 | 0.9 (≈ 0.309 µg/mL) | 26.1 | – | – | – | – | – | >10 | – | – | – | –
Cn1c(NCCc2ccc(-c3ccc(Cl)cc3)nn2)nc2cc(Cl)ccc2c1=O | 0.03 (≈ 0.0128 µg/mL) | > 30 | 4.67 | 3.32 | – | – | – | 8 | – | – | – | –
COc1ccc(CCNc2nc3cc(Cl)c(F)cc3c(=O)n2C)cc1 | 0.03 (≈ 0.0109 µg/mL) | > 30 | – | – | – | – | – | >10 | – | – | – | –
COCCOc1ccc(CCNc2nc3cc(Cl)ccc3c(=O)n2C)cc1 | 0.08 (≈ 0.031 µg/mL) | > 30 | 3.86 | > 10 | – | – | – | 8 | – | – | – | –
Cn1c(NCCc2ccc(-c3ccc(Cl)cn3)cc2)nc2cc(Cl)ccc2c1=O | 0.002 (≈ 0.000851 µg/mL) | > 30 | 5.04 | 0.25 | 0.063 (≈ 0.0268 µg/mL) | 21 (≈ 49.4 µM) | < 1 | 30 | Permeable | 8.4 | > 30 | –
COc1ccc(-c2ccc(CCNc3nc4cc(Cl)ccc4c(=O)n3C)cc2)cn1 | 0.09 (≈ 0.0379 µg/mL) | 11.3 | 4.68 | – | – | – | – | 8 | – | – | – | –
Cn1c(NCCc2ccc(-n3cc(Cl)cn3)cc2)nc2cc(Cl)ccc2c1=O | 0.01 (≈ 0.00414 µg/mL) | 21.6 | 4.67 | 0.86 | – | < 1 | < 1 | 8 | Permeable | – | 16 | –
COc1ccc(-c2ccc(CCNc3nc4cc(Cl)ccc4c(=O)n3C)nc2)cc1 | 0.32 (≈ 0.135 µg/mL) | 14.7 | 4.03 | – | – | – | – | 8 | – | – | – | –
Cn1c(NCCc2ccc(-c3ccccc3)nn2)nc2cc(Cl)ccc2c1=O | 1.12 (≈ 0.439 µg/mL) | 15.1 | – | – | – | – | – | 8 | – | – | – | –
COc1ccc(CCNc2nc3cc(F)ccc3c(=O)n2C)cc1 | 0.2 (≈ 0.0655 µg/mL) | > 30 | – | – | – | – | – | >10 | – | – | – | –
COc1ccc(CCNc2nc3cc(OC)ccc3c(=O)n2C)cc1 | 0.026 (≈ 0.00882 µg/mL) | > 30 | 3.1 | – | – | 734 (≈ 2160 µM) | 4 (≈ 11.8 µM) | >10 | Permeable | 10 | < 1 | –
Cn1c(NCCc2ccc(Oc3ccc(Cl)cn3)cc2)nc2cc(Cl)ccc2c1=O | 0.02 (≈ 0.00883 µg/mL) | – | – | 1.76 | – | – | – | – | – | – | – | 13
Cn1c(NCCc2ccc(-c3ccccc3)cn2)nc2cc(Cl)ccc2c1=O | 0.004 (≈ 0.00156 µg/mL) | 18.3 | – | – | – | – | – | 8 | – | – | – | –
Cn1c(NCCc2ccc(N3CCOCC3)cc2)nc2cc(Cl)ccc2c1=O | 0.33 (≈ 0.132 µg/mL) | > 30 | – | > 10 | – | 1090 (≈ 2740 µM) | 8 (≈ 20.1 µM) | 8 | Permeable | 11 | 11 | –
COc1ccc(-c2ccc(CCNc3nc4cc(Cl)ccc4c(=O)n3C)nc2)cn1 | 0.31 (≈ 0.131 µg/mL) | 24.1 | – | > 15 | – | – | – | 8 | – | – | – | –
Cn1c(NCCc2ccc(-c3ccccc3)cc2)nc2cc(Cl)ccc2c1=O | 0.008 (≈ 0.00312 µg/mL) | 6.5 | 5.27 | 0.87 | 0.164 (≈ 0.0639 µg/mL) | 5 (≈ 12.8 µM) | < 1 | 8 | Permeable | > 30 | > 30 | –
Cn1c(NCCc2ccc(-c3ccc(F)cc3)cn2)nc2cc(Cl)ccc2c1=O | 0.06 (≈ 0.0245 µg/mL) | 0.057 | 4.23 | 4.02 | 0.201 (≈ 0.0822 µg/mL) | – | – | 8 | – | – | – | –
Cn1c(NCCc2ccc(-c3ccccn3)cc2)nc2cc(Cl)ccc2c1=O | 0.027 (≈ 0.0106 µg/mL) | – | – | 25.2 | – | – | – | – | – | – | – | 16.5

SMILES | MIC80 [1] [µM] | IC50 at 40 h ([2]; HepG2 cells) [µM] | logP [3] | MIC80 [4] [µM] | MIC80 [5] [µM] | solubility thermodynamic [6] [µg/mL] | solubility thermodynamic [7] [µg/mL] | Ratio [8] | permeability [9] | IC50 (Cytochrome P450 3A4 [10]) [µM] | IC50 (Cytochrome P450 3A4 [11]) [µM] | IC50 at 40 h ([2]; hepg2) [µM]
Cn1c(NCCc2ccc(Oc3ccccn3)cc2)nc2cc(Cl)ccc2c1=O | 0.06 (≈ 0.0244 µg/mL) | 12.1 | – | 7.37 | – | – | – | 8 | – | – | – | –
COc1ccc(-c2ccc(CCNc3nc4cc(Cl)ccc4c(=O)n3C)cc2)cc1 | 0.007 (≈ 0.00294 µg/mL) | > 30 | 5.13 | 1.47 | – | 26 (≈ 61.9 µM) | < 1 | 200 | Permeable | 7.9 | 8 | –
Cn1c(NCCc2ccc(-c3ncccn3)cc2)nc2cc(Cl)ccc2c1=O | 0.079 (≈ 0.031 µg/mL) | – | – | 4.06 | – | – | – | – | – | – | – | 25.4
COc1ccc(CCNc2nc3cc(C#N)ccc3c(=O)n2C)cc1 | 0.48 (≈ 0.161 µg/mL) | 12.7 | – | – | – | – | – | >10 | – | – | – | –
Cn1c(NCCc2ccc(-n3cccn3)cc2)nc2cc(Cl)ccc2c1=O | 0.02 (≈ 0.0076 µg/mL) | – | – | 8.56 | – | – | – | – | – | – | – | 17.3
CCn1c(NCCc2ccc(OC)cc2)nc2cc(Cl)ccc2c1=O | 1.1 (≈ 0.394 µg/mL) | 21 | – | – | – | – | – | >10 | – | – | – | –
COc1cnc(-c2ccc(CCNc3nc4cc(Cl)ccc4c(=O)n3C)cc2)nc1 | 0.016 (≈ 0.00675 µg/mL) | – | – | 3.52 | 0.081 (≈ 0.0342 µg/mL) | – | – | – | – | – | – | > 30
COc1ccc(CCCNc2nc3cc(Cl)ccc3c(=O)n2C)cc1 | 5.8 (≈ 2.08 µg/mL) | 16.8 | – | – | – | – | – | >10 | – | – | – | –
Cn1c(NCCc2ccc(OC(F)(F)F)cc2)nc2cc(Cl)ccc2c1=O | 0.07 (≈ 0.0278 µg/mL) | 9.9 | 4.95 | 2.33 | – | 43 (≈ 108 µM) | < 1 | 8 | Permeable | > 30 | 4 | –
COc1ccc(CCN(C)c2nc3cc(Cl)ccc3c(=O)n2C)cc1 | 11.2 (≈ 4.01 µg/mL) | > 30 | – | – | – | – | – | >10 | – | – | – | –
COc1ccc(CCNc2nc3ccccc3c(=O)n2C)cc1 | 0.24 (≈ 0.0742 µg/mL) | > 30 | – | – | – | – | – | >10 | – | – | – | –
COc1ccc(-c2ccc(CCNc3nc4cc(Cl)ccc4c(=O)n3C)cc2)nc1 | 0.06 (≈ 0.0253 µg/mL) | 11.9 | 4.67 | – | – | – | – | 8 | – | – | – | –
COc1ccc(-c2ccc(CCNc3nc4cc(Cl)ccc4c(=O)n3C)nn2)cc1 | 0.74 (≈ 0.312 µg/mL) | – | – | – | – | – | – | 8 | – | – | – | –
COc1ccc(CCNc2nc3cc(Cl)ccc3c(=O)[nH]2)cc1 | 6.3 (≈ 2.08 µg/mL) | – | – | – | – | – | – | >10 | – | – | – | –
COc1ccc(CCNc2nc3cc(N(C)C)ccc3c(=O)n2C)cc1 | 0.11 (≈ 0.0388 µg/mL) | – | 1.94 | – | – | – | – | >10 | – | – | – | –
COc1ccc(CCNc2nc3cc(C)ccc3c(=O)n2C)cc1 | 0.01 (≈ 0.00323 µg/mL) | > 30 | – | – | – | 221 (≈ 683 µM) | < 1 | >10 | Permeable | 4.8 | < 1 | –
COc1ccc(CCNc2nc3cc(Cl)ccc3c(=O)n2C)nc1 | 0.53 (≈ 0.183 µg/mL) | 27 | 3.32 | – | – | 1140 (≈ 3300 µM) | 9 (≈ 26.1 µM) | 8 | Permeable | 7.4 | < 1 | –
Cn1c(NCCc2ccc(-c3ccc(F)cn3)cc2)nc2cc(Cl)ccc2c1=O | 0.015 (≈ 0.00613 µg/mL) | – | – | 3.14 | 0.051 (≈ 0.0209 µg/mL) | – | – | – | – | – | – | 19
Cn1c(NCCc2ccc(-c3ncc(Cl)cn3)cc2)nc2cc(Cl)ccc2c1=O | 0.006 (≈ 0.00256 µg/mL) | > 30 | 5.02 | 0.11 | 0.947 (≈ 0.404 µg/mL) | 10 (≈ 23.5 µM) | < 1 | – | Permeable | – | – | –
Cn1c(NCCc2ccccc2)nc2cc(Cl)ccc2c1=O | 0.06 (≈ 0.0188 µg/mL) | 15.2 | 4.24 | 2.79 | – | 180 (≈ 574 µM) | < 1 | 8 | Permeable | 18 | 11 | –
